Series [1] relates to Rgg2/3 quorum-sensing pathway (Pshp3-lux). The series is described as follows: Luminescence transcriptional reporter assay, Pshp3-lux. The series is classed as cell-based, Streptococcus pyogenes. Conditions: WT NZ131 Pshp3-lux, CDM with 1% mannose and 0.05% glucose; 500 nM RI-10, 500 nM L10A or 10 mM MgSO4.
In series [2] the test system is PepO in intact cells, lysed cells or conditioned supernatants. The experiment in a line: Activity-based screening for PepO localization. The series is classed as in vitro ADME, Streptococcus pyogenes. Conditions: 50 nM sSHP2-C8, intact cells, lysed cells or conditioned supernatants of ΔoppD shp2GGG shp3GGG pepO+ and pepO- cultures, 30 °C, 4 hours; read-out ΔpepO shp2GGGshp3GGG Pshp3-lux reporter.

Where no end group is shown, it is not given here.

Consider `O=S(=O)([O-])[O-].[Mg+2]` [Mg^2+, MgSO4], for which the “effect on Pshp3-lux induction in mannose-induced wild-type reporter” value in series [1] is “unlike cultures treated with the inactive L10A variant or Mg^2+”.

Take DILIIVGG [sSHP2-C8]: the “PepO-dependent degradation of SHP in cellular fractions” value in series [2] is “found only in the cytoplasmic fraction”.

These data come from publication PMC4987125 (Molecular microbiology, 2015).
